target: T1, human LPAR1 (Homo sapiens, UniProt Q92633); assay: LPAR1 intracellular calcium mobilization assay (antagonist mode, CHO-K1 EDG2 cells, FLIPR); assay type: cell-based; settings: antagonist activity; CHO-K1 EDG2 cells expressing human LPAR1; 60 min pre-incubation at 37° C., then LPA 18:2 at EC80 concentration (100 nM); test compound 0.5 nM to 10 μM; read-out: LPAR1 (EC50; nM)
T1 construct: host or cells: CHO-K1
Procedure: In vitro LPAR1 activity was measured in an intracellular calcium mobilization assay.
CHO-K1 EDG2 cells (DiscoverX cat #93-0644C2) expressing human LPAR1 (NM_001401.3) were seeded in a total volume of 25 μL of Dulbecco's Modification of Eagle's Medium (DMEM) with 10% Fetal Bovine Serum, 1× PenStrepGlutamine, 300 μg/ml Hygromycin, and 800 μg/ml G418 into 384-well tissue culture plate (Grenier #781091) at 15,000 cells/well and incubated at 37° C. overnight. Prior to testing, 25 μL Calcium Loading Dye Component A (FLIPR Calcium 6 Assay Kit Molecular Device #R8190) and 2.5 mM Probenecid (Invitrogen #P36400, prepared fresh) in Hank's Balanced Salt Solution (Corning #21-023-CV), 20 mM HEPES (Corning #25-060-CI), 0.1% Bovine Serum Albumin (Sigma-Aldrich #A7906-500G) was add to the cells for 60 minutes at 37° C.
Agonist dose curves of LPA 18:2 (Avanti Polar Lipids cat #857138, 0.5 nM to 10 μM) were recorded to determine the LPA 18:2 EC80 for subsequent antagonist assays. For agonist dose curves, cells were removed from the incubator 2 hours after dye loading and transferred to the FLIPR Tetra instrument (Molecular Devices, San Jose, CA). Calcium mobilization was monitored for […] and 10 μL 6× LPA in HBSS/20 mM Hepes/0.1% bovine serum albumin (BSA) was added to the cells 5 seconds into the assay.
To determine the LPAR1 antagonist activity of test compounds, cells were pre-incubated with test compound at a dose range of 0.5 nM to 10 μM, followed by LPA at EC80 concentration (100 nM). After dye loading, cells were removed from the incubator and 0.3 μL of 200X antagonist was added. Cells were incubated for 60 minutes at 37° C. Antagonist activity was measured on a FLIPR Tetra. Calcium mobilization was monitored for 3.5 minutes and 10 μL 6X EC80 LPA in HBSS, 20 mM HEPES, and 0.1% BSA was added to the cells 5 seconds into the assay. Signal amplitude (Maximum minus minimum) values were plotted against log10 of antagonist concentration using Dose Response Tool (Gilead Sciences Inc.) to determine EC50.
The compound numbers correspond to the compound numbers in Examples 1 to13.

T1 sequence (Q92633 whole entry): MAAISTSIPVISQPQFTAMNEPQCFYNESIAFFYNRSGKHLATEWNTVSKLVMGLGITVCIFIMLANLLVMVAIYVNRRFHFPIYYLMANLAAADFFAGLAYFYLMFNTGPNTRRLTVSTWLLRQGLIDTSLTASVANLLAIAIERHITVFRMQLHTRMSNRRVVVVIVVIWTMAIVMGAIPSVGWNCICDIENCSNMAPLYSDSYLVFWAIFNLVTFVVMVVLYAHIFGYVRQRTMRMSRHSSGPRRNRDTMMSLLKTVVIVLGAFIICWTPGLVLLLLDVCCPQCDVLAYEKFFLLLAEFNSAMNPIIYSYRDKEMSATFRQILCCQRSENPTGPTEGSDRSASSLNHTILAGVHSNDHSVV

| Structure (SMILES) | IC50 |
| --- | --- |
| CC(=O)Nc1ccc(-c2nnn(C)c2NC(=O)O[C@H](C)c2cc(F)cnc2F)nc1 [Compound 12, (R)-1-(2,5-difluoropyridin-3-yl)ethyl (4-(5-acetamidopyridin-2-yl)-1-methyl-1H-1,2,3-triazol-5-yl)carbamate] | 2050 nM |
| C[C@@H](OC(=O)Nc1c(-c2ccc(NC(=O)c3ccc(C4CC4)nc3)cn2)nnn1C)c1cc(F)cnc1F [Compound 6, (R)-1-(2,5-difluoropyridin-3-yl)ethyl (4-(5-(6-cyclopropylnicotinamido)pyridin-2-yl)-1-methyl-1H-1,2,3-triazol-5-yl)carbamate] | 176 nM |
| C[C@@H](OC(=O)Nc1c(-c2ccc(NC(=O)C(F)(F)F)cn2)nnn1C)c1cccc(F)c1 [Compound 1, (R)-1-(3-fluorophenyl)ethyl (1-methyl-4-(5-(2,2,2-trifluoroacetamido)pyridin-2-yl)-1H-1,2,3-triazol-5-yl)carbamate] | 345 nM |
| Cc1nc(-c2nnn(C)c2NC(=O)O[C@H](C)c2cc(F)cnc2F)ccc1NC(=O)C1(CN)CC(F)(F)C1 [Compound 9, (R)-1-(2,5-difluoropyridin-3-yl)ethyl (4-(5-(1-(aminomethyl)-3,3-difluorocyclobutane-1-carboxamido)-6-methylpyridin-2-yl)-1-methyl-1H-1,2,3-triazol-5-yl)carbamate] | 34 nM |
| C[C@@H](OC(=O)Nc1c(-c2ccc(NC(=O)C3(C#N)CC3)c(Cl)n2)nnn1C)c1cc(F)cnc1F [Compound 5, (R)-1-(2,5-difluoropyridin-3-yl)ethyl (4-(6-chloro-5-(1-cyanocyclopropane-1-carboxamido)pyridin-2-yl)-1-methyl-1H-1,2,3-triazol-5-yl)carbamate] | 186 nM |
| Cc1nc(-c2nnn(C)c2NC(=O)O[C@H](C)c2cc(F)cnc2F)ccc1NC(=O)c1cnc(C2CC2)o1 [Compound 7, (R)-1-(2,5-difluoropyridin-3-yl)ethyl (4-(5-(2-cyclopropyloxazole-5-carboxamido)-6-methylpyridin-2-yl)-1-methyl-1H-1,2,3-triazol-5-yl)carbamate] | 261 nM |
| C[C@@H](OC(=O)Nc1c(-c2ccc(NC(=O)C3(O)CC3)cn2)nnn1C)c1cccnc1Cl [Compound 3, (R)-1-(2-chloropyridin-3-yl)ethyl (4-(5-(1-hydroxycyclopropane-1-carboxamido)pyridin-2-yl)-1-methyl-1H-1,2,3-triazol-5-yl)carbamate] | 2770 nM |
| C[C@@H](OC(=O)Nc1c(-c2ccc(NC(=O)c3cnc(-c4cccc(Cl)c4)nc3)cn2)nnn1C)c1cc(F)cnc1F [Compound 8, (R)-1-(2,5-difluoropyridin-3-yl)ethyl (4-(5-(2-(3-chlorophenyl)pyrimidine-5-carboxamido)pyridin-2-yl)-1-methyl-1H-1,2,3-triazol-5-yl)carbamate] | 22 nM |

Further molecules by falling IC50, results first:

| IC50 | Structure (SMILES) |
| --- | --- |
| 37000 nM | CC(=O)Nc1ccc(-c2nnn(C)c2NC(=O)O[C@H](CF)c2cccc(F)c2)nc1C [Compound 2, (S)-2-fluoro-1-(3-fluorophenyl)ethyl (4-(5-acetamido-6-methylpyridin-2-yl)-1-methyl-1H-1,2,3-triazol-5-yl)carbamate] |
| 1260 nM | COC1(C(=O)Nc2ccc(-c3nnn(C)c3NC(=O)O[C@H](C)c3cccnc3Cl)nc2)CC1 [Compound 4, (R)-1-(2-chloropyridin-3-yl)ethyl (4-(5-(1-methoxycyclopropane-1-carboxamido)pyridin-2-yl)-1-methyl-1H-1,2,3-triazol-5-yl)carbamate] |
| 365 nM | C[C@@H](OC(=O)Nc1c(-c2ccc(NC(=O)c3ccc(C45CC(C4)C5)cc3)cn2)nnn1C)c1cc(F)cnc1F [Compound 11, (R)-1-(2,5-difluoropyridin-3-yl)ethyl (4-(5-(4-(bicyclo[1.1.1]pentan-1-yl)benzamido)pyridin-2-14)-1-methyl-1H-1,2,3-triazol-5-yl)carbamate] |
| 152 nM | C[C@@H](OC(=O)Nc1c(-c2ccc(NC(=O)C34CC(OS(C)(=O)=O)(C3)C4)cn2)nnn1C)c1cccnc1Cl [Compound 13, (R)-3-((6-(5-(((1-(2-chloropyridin-3-yl)ethoxy)carbonyl)amino)-1-methyl-1H-1,2,3-triazol-4-yl)pyridin-3-yl)carbamoyl)bicyclo[1.1.1]pentan-1-yl methanesulfonate] |
| 13 nM | C[C@@H](OC(=O)Nc1c(-c2ccc(NC(=O)C34CC(c5ccccc5)(C3)C4)cn2)nnn1C)c1cc(F)cnc1F [Compound 10, (R)-1-(2,5-difluoropyridin-3-yl)ethyl (1-methyl-4-(5-(3-phenylbicyclo[1.1.1]pentane-1-carboxamido)pvidin-2-yl)-1H-1,2,3-triazol-5-yl)carbamate] |

Reference: US11939318B2, “LPA receptor antagonists and uses thereof” (Gilead Sciences, Inc., priority 2021, dated 2024)
